Measured values reported in patent US20110060013A1, “THIAZOLES AND PYRAZOLES USEFUL AS KINASE INHIBITORS” (VERTEX PHARMACEUTICALS INCORPORATED, priority 2007, published 2011).

Assays:
Aurora-1 (Aurora B) = Aurora-1 (Aurora B) (Homo sapiens, UniProt Q96GD4); assay: Aurora-1 (Aurora B) inhibition assay (radiometric); assay type: biochemical; details: 800 μM [γ-33P]-ATP, Kemptide, 25° C., 3 hours
Procedure: An assay buffer solution was prepared which consisted of 25 mM HEPES (pH 7.5), 10 mM MgCl2, 0.1% BSA and 10% glycerol. A 22 nM Aurora-B solution, also containing 1.7 mM DTT and 1.5 mM Kemptide (LRRASLG), was prepared in assay buffer. To 22 μL of the Aurora-B solution, in a 96-well plate, was added 2 μl of a compound stock solution in DMSO and the mixture allowed to equilibrate for 10 minutes at 25° C. The enzyme reaction was initiated by the addition of 16 μl stock [γ-^33P]-ATP solution (˜20 nCi/μL) prepared in assay buffer, to a final assay concentration of 800 μM. The reaction was stopped after 3 hours by the addition of 16 μL 500 mM phosphoric acid and the levels of ^33P incorporation into the peptide substrate were determined by the following method.
A phosphocellulose 96-well plate (Millipore, Cat no. MAPHNOB50) was pre-treated with 100 μL of a 100 mM phosphoric acid prior to the addition of the enzyme reaction mixture (40 μL). […] Levels of non-enzyme catalyzed background radioactivity were determined by adding 16 μL of the 500 mM phosphoric acid to control wells, containing all assay components (which acts to denature the enzyme), prior to the addition of the [γ-^33P]-ATP solution. Levels of enzyme catalyzed ^33P incorporation were calculated by subtracting mean background counts from those measured at each inhibitor concentration. […]

Aurora-2 (Aurora A) = target: T1, Aurora-2 (Aurora A) (Homo sapiens, UniProt O14965); assay: Aurora-2 (Aurora A) inhibition, coupled enzyme assay; assay type: biochemical; details: 400 μM ATP, 570 μM Kemptide, 40 nM Aurora-2, 30° C.
T1 sequence (O14965 1-403): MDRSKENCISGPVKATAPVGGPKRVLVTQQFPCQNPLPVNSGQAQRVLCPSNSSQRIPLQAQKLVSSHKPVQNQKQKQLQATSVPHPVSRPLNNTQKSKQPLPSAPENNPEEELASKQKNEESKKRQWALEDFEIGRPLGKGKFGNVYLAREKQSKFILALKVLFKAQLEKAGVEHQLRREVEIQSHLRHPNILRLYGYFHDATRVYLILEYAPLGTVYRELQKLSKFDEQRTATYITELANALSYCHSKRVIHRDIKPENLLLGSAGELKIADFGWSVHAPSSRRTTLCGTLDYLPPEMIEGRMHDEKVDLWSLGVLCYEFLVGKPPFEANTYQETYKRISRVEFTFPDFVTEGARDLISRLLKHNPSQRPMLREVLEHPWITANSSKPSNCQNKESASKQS
Procedure: Compounds were screened for their ability to inhibit Aurora-2 using a standard coupled enzyme assay (Fox et al., Protein Sci., (1998) 7, 2249). Assays were carried out in a mixture of 100 mM Hepes (pH7.5), 10 mM MgCl2, 1 mM DTT, 25 mM NaCl, 2.5 mM phosphoenolpyruvate, 300 μM NADH, 30 μg/ml pyruvate kinase and 10 μg/ml lactate dehydrogenase. Final substrate concentrations in the assay were 400 μM ATP (Sigma Chemicals) and 570 μM peptide (Kemptide, American Peptide, Sunnyvale, Calif.). Assays were carried out at 30° C. and in the presence of 40 nM Aurora-2.
An assay stock buffer solution was prepared containing all of the reagents listed above, with the exception of Aurora-2 and the test compound of interest. 55 μl of the stock solution was placed in a 96 well plate followed by addition of 2 μl of DMSO stock containing serial dilutions of the test compound (typically starting from a final concentration of 7.5 μM). The plate was preincubated for 10 minutes at 30° C. and the reaction initiated by addition of 10 μl of Aurora-2. Initial reaction rates were determined with a Molecular Devices SpectraMax Plus plate reader over a 10 minute time course. IC50 and Ki data were calculated from non-linear regression analysis using the Prism software package (GraphPad Prism version 3.0cx for Macintosh, GraphPad Software, San Diego Calif., USA).

Chain of Aurora-1 (Aurora B) (Q96GD4 whole entry): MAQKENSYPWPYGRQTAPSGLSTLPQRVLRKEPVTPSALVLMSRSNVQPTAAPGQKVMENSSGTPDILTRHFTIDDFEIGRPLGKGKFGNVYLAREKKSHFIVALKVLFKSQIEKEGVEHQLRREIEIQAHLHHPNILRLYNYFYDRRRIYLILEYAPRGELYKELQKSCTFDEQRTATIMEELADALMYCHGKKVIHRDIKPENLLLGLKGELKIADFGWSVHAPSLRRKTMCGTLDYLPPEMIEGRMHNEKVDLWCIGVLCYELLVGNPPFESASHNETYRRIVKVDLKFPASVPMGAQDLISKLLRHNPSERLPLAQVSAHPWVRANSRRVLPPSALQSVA

Ki (Aurora-1 (Aurora B))	Ki (Aurora-2 (Aurora A))	Compound
< 1000 nM	< 100 nM	Cc1cnc(Nc2cc(N3CC[C@H](F)C3)cc(Sc3ccc(NC(=O)C4CC4)cc3)n2)s1 [Compound 1, (S)-N-(4-(4-(3-Fluoropyrrolidin-1-yl)-6-(5-methylthiazol-2-ylamino)pyridin-2-ylthio)phenyl)cyclopropanecarboxamide]
< 1000 nM	< 100 nM	Cc1cc(Nc2cc(N3CC[C@H](F)C3)cc(Sc3ccc(NC(=O)C4CC4)cc3)n2)[nH]n1 [Compound 2, (S)-N-(4-(4-(3-Fluoropyrrolidin-1-yl)-6-(3-methyl-1H-pyrazol-5-ylamino)pyridin-2-ylthio)phenyl)cyclopropanecarboxamide]
